One may read the EC50 as the concentration that produces a half-maximal response.

Molecules are shown by their SMILES. Some results are limits rather than exact numbers.

One assay deals with T1, REV-ERBα LBD (human; residues 281-614 Δ324-422) (Homo sapiens, UniProt P20393, DEL324-422).
T1 construct: 6×Histag-REV-ERBα LBD (human; residues 281-614 Δ324-422); made in house; host or cells: Escherichia coli
T1 sequence (P20393 with tags, fused parts or gaps DEL324-422): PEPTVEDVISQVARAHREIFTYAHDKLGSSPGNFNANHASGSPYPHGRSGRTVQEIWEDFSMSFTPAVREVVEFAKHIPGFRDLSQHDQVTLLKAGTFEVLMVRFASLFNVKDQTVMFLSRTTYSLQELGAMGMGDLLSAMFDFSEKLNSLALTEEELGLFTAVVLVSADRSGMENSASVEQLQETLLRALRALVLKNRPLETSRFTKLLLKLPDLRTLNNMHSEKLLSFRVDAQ
T1 sequence (Q9Y618 2335-2356 partner limits assumed): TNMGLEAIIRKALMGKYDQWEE
Briefly: TR-FRET corepressor interaction assay (REV-ERBα LBD, FITC-SMRT peptide). The class given is biochemical. The note with it: FITC-SMRT peptide, read-out: REVERBα agonism (EC50 class, FRET assay). As to the method: TR-FRET corepressor interaction assay. The time-resolved fluorescence resonance energy transfer (TR-FRET) assay was performed in black low-volume 384-well plates (Greiner). […] Ligand stocks were prepared via serial dilution in DMSO, added to wells in triplicate, and plates were incubated at 4° C. for 2 h and read using a BioTek Synergy Neo multimode plate reader. The Tb donor was excited at 340 nm; its fluorescence emission was monitored at 495 nm, and the acceptor FITC emission was measured at 520 nm; and the TR-FRET ratio was calculated as the signal at 520 nm divided by the signal at 495 nm. Data were plotted using GraphPad Prism as TR-FRET ratio vs. ligand concentration and fit to sigmoidal dose response curve equation.
Background: Time-resolved FRET reads energy transfer from a long-lived donor to a nearby acceptor.
On to `CC(C)(C)Cn1cc([C@H](NS(=O)(=O)C2CCC2)C(F)F)c2cc(F)c(-c3ccccc3C(F)(F)F)nc21` [Example 533, (S)—N-(2,2-difluoro-1-(5-fluoro-1-neopentyl-6-(2-(trifluoromethyl)phenyl)-1H-pyrrolo[2,3-b]pyridin-3-yl)ethyl)cyclobutanesulfonamide], for which the 50% effective concentration (EC50) is less than 500 nM.
For the molecule `CC(C)C(=O)n1cc([C@H](NS(=O)(=O)C2CCC2)C(F)(F)F)c2ccc(-c3ccccc3C(F)(F)F)cc21` [Example 504, (S)—N-(2,2,2-trifluoro-1-(1-isobutyryl-6-(2-(trifluoromethyl)phenyl)-1H-indol-3-yl)ethyl)cyclobutanesulfonamide], the EC50 was less than 500 nM.
The same measure, in the same setting: to `[2H]C([2H])([2H])C(NS(=O)(=O)C1CCC1)c1cn(CC(C)(C)C)c2cc(-c3ccccc3C(F)(F)F)ccc12` (stereo not drawn) [Example 509, N-(1-(1-neopentyl-6-(2-(trifluoromethyl)phenyl)-1H-indol-3-yl)ethyl-2,2,2-d3)cyclobutanesulfonamide] belongs less than 500 nM.
Take `[2H]C([2H])(n1cc([C@H](NS(=O)(=O)C2CCC2)C(F)(F)F)c2ccc(-c3ccccc3C(F)(F)F)cc21)C(C)(C)C` [Example 517, (S)—N-(1-(1-(2,2-dimethylpropyl-1,1-d2)-6-(2-(trifluoromethyl)phenyl)-1H-indol-3-yl)-2,2,2-trifluoroethyl)cyclobutanesulfonamide]: the EC50 is less than 500 nM.
`CC(C)(C)Cn1cc([C@H](NS(=O)(=O)C2CC2(F)F)C(F)(F)F)c2ccc(-c3ccccc3C(F)(F)F)cc21` (stereo partly drawn) [Example 515, 2,2-difluoro-N—((S)-2,2,2-trifluoro-1-(1-neopentyl-6-(2-(trifluoromethyl)phenyl)-1H-indol-3-yl)ethyl)cyclopropane-1-sulfonamide]: the EC50 lay within 500 to 3000 nM.
Consider `CC(C)(C)Cn1cc([C@H](NS(=O)(=O)C2CCC2)C(F)(F)F)c2cc(F)c(-c3ncccc3C(F)(F)F)cc21` [Example 444, (S)—N-(2,2,2-trifluoro-1-(5-fluoro-1-neopentyl-6-(3-(trifluoromethyl)pyridin-2-yl)-1H-indol-3-yl)ethyl)cyclobutanesulfonamide], for which the EC50 was less than 500 nM.
For the molecule `CC(C)(C)Cn1cc(CCNS(=O)(=O)C2CC2)c2ccc(-c3cc(C(F)(F)F)ccc3C(F)(F)F)cc21` [Example 483, N-(2-(6-(2,5-bis(trifluoromethyl)phenyl)-1-neopentyl-1H-indol-3-yl)ethyl)cyclopropanesulfonamide], the EC50 is less than 500 nM.
As for `CC(C)(C)Cn1cc([C@H](NS(=O)(=O)C2CC2)C(F)F)c2ccc(-c3ccccc3C(F)(F)F)nc21` [Example 547, (S)—N-(2,2-difluoro-1-(1-neopentyl-6-(2-(trifluoromethyl)phenyl)-1H-pyrrolo[2,3-b]pyridin-3-yl)ethyl)cyclopropanesulfonamide], the EC50 is less than 500 nM.
Regarding `CC(C)(C)Cn1cc([C@H](NS(=O)(=O)C2CCC2)C(F)(F)F)c2ccc(-c3ccccc3C#N)nc21` [Example 534, (S)—N-(1-(6-(2-cyanophenyl)-1-neopentyl-1H-pyrrolo[2,3-b]pyridin-3-yl)-2,2,2-trifluoroethyl)cyclobutanesulfonamide], the EC50 was less than 500 nM.
As for `CC(C)(C)Cn1cc([C@H](NS(=O)(=O)C2CCC2)C(F)(F)F)c2ccc(-c3ccccc3C(F)(F)F)nc21` [Example 492, N-[(1S)-1-[1-(2,2-dimethylpropyl)-6-[2-(trifluoromethyl)phenyl]pyrrolo[2,3-b]pyridin-3-yl]-2,2,2-trifluoro-ethyl]cyclobutanesulfonamide], the EC50 was less than 500 nM.
As to `[2H]C([2H])(n1cc([C@H](NS(=O)(=O)C2CC2)C(F)(F)F)c2ccc(-c3ccccc3C(F)(F)F)cc21)C(C)(C)C` [Example 564, (S)—N-(1-(1-(2,2-dimethylpropyl-1,1-d2)-6-(2-(trifluoromethyl)phenyl)-1H-indol-3-yl)-2,2,2-trifluoroethyl)cyclopropanesulfonamide], the EC50 was less than 500 nM.
As to `CC(NS(=O)(=O)C1CCC1)c1cn(CC(C)(C)C)c2cc(-c3ccccc3C(F)(F)F)ccc12` (stereo not drawn) [Example 507, N-(1-(1-neopentyl-6-(2-(trifluoromethyl)phenyl)-1H-indol-3-yl)ethyl)cyclobutanesulfonamide], the EC50 was less than 500 nM.
On to `CC1(Cn2cc([C@H](NS(=O)(=O)C3CC3)C(F)(F)F)c3cc(F)c(-c4ccccc4C(F)(F)F)cc32)COC1` [Example 489, N-[(1S)-2,2,2-trifluoro-1-[5-fluoro-1-[(3-methyloxetan-3-yl)methyl]-6-[2-(trifluoromethyl)phenyl]indol-3-yl]ethyl]cyclopropanesulfonamide], for which the EC50 was less than 500 nM.
With `CC(C)(C)Cn1cc([C@H](NS(=O)(=O)C2CC(O)C2)C(F)(F)F)c2ccc(-c3ccccc3C(F)(F)F)cc21` (stereo partly drawn) [Example 522, (S)-3-hydroxy-N-(2,2,2-trifluoro-1-(1-neopentyl-6-(2-(trifluoromethyl)phenyl)-1H-indol-3-yl)ethyl)cyclobutane-1-sulfonamide], the EC50 lay within 500 to 3000 nM.
As for `CC(C)(C)Cn1cc([C@H](NS(=O)(=O)C2CC2)C(F)F)c2cc(F)c(-c3ccccc3C(F)(F)F)nc21` [Example 546, (S)—N-(2,2-difluoro-1-(5-fluoro-1-neopentyl-6-(2-(trifluoromethyl)phenyl)-1H-pyrrolo[2,3-b]pyridin-3-yl)ethyl)cyclopropanesulfonamide], the EC50 was less than 500 nM.
`CC(C)(C)Cn1cc([C@H](NS(=O)(=O)C2CCC2)C(F)(F)F)c2ccc(-c3ccccc3C(F)(F)F)cc21` [Example 494, (S)—N-(2,2,2-trifluoro-1-(1-neopentyl-6-(2-(trifluoromethyl)phenyl)-1H-indol-3-yl)ethyl)cyclobutanesulfonamide]: the EC50 was less than 500 nM.

The same assay, now with this note: Table 2, read-out: REVERBα agonism (EC50 class, FRET assay).
In the case of `CC(C)(C)Cn1cc([C@H](NS(=O)(=O)N2CCC2)C(F)(F)F)c2cc(F)c(-c3ccccc3C(F)(F)F)cc21` [Example 346, (S)—N-(2,2,2-trifluoro-1-(5-fluoro-1-neopentyl-6-(2-(trifluoromethyl)phenyl)-1H-indol-3-yl)ethyl)azetidine-1-sulfonamide], the EC50 was less than 500 nM.
Consider `CC(C)(C)Cn1cc(CCNS(=O)(=O)C2CC2)c2cc(F)c(-c3ccncc3Cl)cc21` [Compound 288], for which the EC50 was less than 500 nM.
The same measure, in the same setting: for `CC(C)Cc1cn(CCS(=O)(=O)C(C)(C)C)c2ccc(Br)cc12` [Example 174, 5-bromo-1-(2-(tert-butylsulfonyl)ethyl)-3-isobutyl-1H-indole] the value was 500 to 3000 nM; for `CNS(=O)(=O)N[C@@H](c1cn(CC(C)(C)C)c2cc(-c3ccccc3C(F)(F)F)c(F)cc12)C(F)(F)F` [Example 371], 500 to 3000 nM.
On to `CC(C)(C)Cn1cc([C@H](NS(=O)(=O)C2CCC2)C(F)(F)F)c2ccc(-c3c(F)cccc3Cl)cc21` [Example 411, (S)—N-(1-(6-(2-chloro-6-fluorophenyl)-1-neopentyl-1H-indol-3-yl)-2,2,2-trifluoroethyl)cyclobutanesulfonamide], for which the EC50 was less than 500 nM.
For `CC(C)S(=O)(=O)NCCn1cc(CC(C)(C)C)c2cc(-c3ccc(C(F)(F)F)cc3C(F)(F)F)ccc21` [Example 417, N-(2-(5-(2,4-bis(trifluoromethyl)phenyl)-3-neopentyl-1H-indol-1-yl)ethyl)propane-2-sulfonamide], the EC50 is less than 500 nM.
Turning to `CC(C)(C)Cn1cc([C@H](NS(=O)(=O)C2CC2)C(F)(F)F)c2cc(F)c(C3CC3)cc21` [Example 327, (S)—N-(1-(6-cyclopropyl-5-fluoro-1-neopentyl-1H-indol-3-yl)-2,2,2-trifluoroethyl)cyclopropanesulfonamide], the EC50 was less than 500 nM.
In the case of `CC(C)S(=O)(=O)NCCc1cn(CC(C(F)(F)F)C(F)(F)F)c2cc(-c3ccncc3)ccc12` [Compound 271], the EC50 lay in the range of 500 to 3000 nM.
For the molecule `CC(C)Cn1cc(CCNS(=O)(=O)N(C)C)c2ccc(-c3cccc([N+](=O)[O-])c3)cc21` [Example 49, N-{2-[6-(3-nitrophenyl)-1-(2-methylpropyl)-1H-indol-3-yl]ethyl}-N,N-dimethylsulfuric diamide], the EC50 is less than 500 nM.
As for `Cc1nc2ccccn2c1-c1ccc2c([C@H](NS(=O)(=O)C3CC3)C(F)(F)F)cn(CC(C)(C)C)c2c1` [Example 385, (S)—N-(2,2,2-trifluoro-1-(6-(2-methylimidazo[1,2-a]pyridin-3-yl)-1-neopentyl-1H-indol-3-yl)ethyl)cyclopropanesulfonamide], the EC50 was 500 to 3000 nM.
Take `CC(C)Cn1cc(CCNS(=O)(=O)N(C)C)c2cc(F)c(-c3ccncc3)cc21` [Example 176, ({2-[5-fluoro-1-(2-methylpropyl)-6-(pyridin-4-yl)-1H-indol-3-yl]ethyl}sulfamoyl)dimethylamine]: the EC50 was less than 500 nM.
Regarding `CN(C)S(=O)(=O)N[C@@H](c1cn(CC(C)(C)C)c2cc(-c3ccccc3Cl)ccc12)C(F)(F)F` [Example 338, {[(1S)-1-[6-(2-chlorophenyl)-1-(2,2-dimethylpropyl)-1H-indol-3-yl]-2,2,2-trifluoroethyl]sulfamoyl}dimethylamine], the EC50 was less than 500 nM.
For `CC(C)Cn1cc(C2(NS(=O)(=O)N(C)C)CC2)c2ccc(-c3ccncc3)cc21` [Example 207, dimethyl({1-[1-(2-methylpropyl)-6-(pyridin-4-yl)-1H-indol-3-yl]cyclopropyl}sulfamoyl)amine], the EC50 is more than 3000 nM.
Consider `COC(=O)c1ccccc1-c1ccc2c(CCNS(=O)(=O)N(C)C)cn(CC(C)C)c2c1` [Example 73, N′-{2-[6-(2-methyl carbonatephenyl)-1-(2-methylpropyl)-1H-indol-3-yl]ethyl}-N,N-dimethyl sulfuric diamide], for which the EC50 was more than 3000 nM.
